Experiments:
Assay type in all cases: in vivo, mongrel adult dogs
[1] = system: arterial mean blood pressure; experiment: Effects on arterial mean blood pressure
Experimental: (§1) All experiments were made on male and female thoractomized mongrel adult dogs weighing about 10 kg. under anesthesia with pentobarbital sodium. Compounds A, D, E and F were suspended in 0.2% CMC solution, Compound B dissolved in hydrochloric acid solution (pH 6), and Compound C and active placebo being dissolved in physiological saline solution. Animals were administered the drug intravenously on brachiuma with either test compound or active placebo.
(§2) Arterial blood pressure was measured by pressure transducer (Nippon Koden MPU-0.5) connected with the cannula inserted from exposed carotid artery into aorta. Aortic blood flow was determined by means of electromagnetic flow meter (Nippon Koden MF-5) mounted at the origin of the aorta. Coronary sinus out flow and coronary sinus oxygen tension were assessed by means of electromagnetic flow meter (Nippon Koden MF-5) and P02 macro electrode (Beokmann Moder 160-C), respectively using Morawitz cannulization technique. Heart rate was measured by cardiotachometer (Nippon Koden RT-2) synchronized with systolic blood pressure of aorta.

[2] = system: coronary sinus oxygen tension; experiment: Effects on coronary sinus oxygen tension
Experimental: as §1, §2

[3] = system: coronary sinus out flow; experiment: Effects on coronary sinus out flow
Experimental: as §1, §2

Compound: COc1ccc(C(C#N)N2CCN(CC(=O)N3CCCC3)CC2)cc1OC (stereo not shown) [Compound C]
- Changes (%) of basal values, arterial mean blood pressure ([1]; 2.0 mg/kg i.v., 1 min): +0.8%
- Changes (%) of basal values, arterial mean blood pressure ([1]; 2.0 mg/kg i.v., 5 min): 0%
- Changes (%) of basal values, arterial mean blood pressure ([1]; 2.0 mg/kg i.v., 10 min): 0%
- Changes (%) of basal values, arterial mean blood pressure ([1]; 2.0 mg/kg i.v., 20 min): 0%
- Changes (%) of basal values, arterial mean blood pressure ([1]; 2.0 mg/kg i.v., 30 min): 0%
- Changes (%) of basal values, arterial mean blood pressure ([1]; 2.0 mg/kg i.v., 40 min): 0%
- Changes (%) of basal values, arterial mean blood pressure ([1]; 2.0 mg/kg i.v., imm.): -4.2%
- Changes (%) of basal values, arterial mean blood pressure ([1]; 6.0 mg/kg i.v., 1 min): -3.9%
- Changes (%) of basal values, arterial mean blood pressure ([1]; 6.0 mg/kg i.v., 5 min): -1.6%
- Changes (%) of basal values, arterial mean blood pressure ([1]; 6.0 mg/kg i.v., 10 min): -0.7%
- Changes (%) of basal values, arterial mean blood pressure ([1]; 6.0 mg/kg i.v., 20 min): -3.6%
- Changes (%) of basal values, arterial mean blood pressure ([1]; 6.0 mg/kg i.v., 30 min): -2.5%
- Changes (%) of basal values, arterial mean blood pressure ([1]; 6.0 mg/kg i.v., 40 min): -1.3%
- Changes (%) of basal values, arterial mean blood pressure ([1]; 6.0 mg/kg i.v., imm.): -12.1%
- Changes (%) of basal values, arterial mean blood pressure ([1]; 20.0 mg/kg i.v., 1 min): -17.1%
- Changes (%) of basal values, arterial mean blood pressure ([1]; 20.0 mg/kg i.v., 5 min): -18.8%
- Changes (%) of basal values, arterial mean blood pressure ([1]; 20.0 mg/kg i.v., 10 min): -22.2%
- Changes (%) of basal values, arterial mean blood pressure ([1]; 20.0 mg/kg i.v., 20 min): -27.2%
- Changes (%) of basal values, arterial mean blood pressure ([1]; 20.0 mg/kg i.v., 30 min): -28.0%
- Changes (%) of basal values, arterial mean blood pressure ([1]; 20.0 mg/kg i.v., 40 min): -26.1%
- Changes (%) of basal values, arterial mean blood pressure ([1]; 20.0 mg/kg i.v., imm.): -29.0%
- Effects on arterial mean blood pressure (in words) ([1]; i.v., anesthetized dogs): hypotensive effects being proportioned to their doses which were of long duration
- Changes(%) of basal values, coronary sinus oxygen tension ([2]; 2.0 mg/kg i.v., 1 min): +5.4%
- Changes(%) of basal values, coronary sinus oxygen tension ([2]; 2.0 mg/kg i.v., 5 min): +2.8%
- Changes(%) of basal values, coronary sinus oxygen tension ([2]; 2.0 mg/kg i.v., 10 min): +2.0%
- Changes(%) of basal values, coronary sinus oxygen tension ([2]; 2.0 mg/kg i.v., 20 min): +1.1%
- Changes(%) of basal values, coronary sinus oxygen tension ([2]; 2.0 mg/kg i.v., 30 min): 0%
- Changes(%) of basal values, coronary sinus oxygen tension ([2]; 2.0 mg/kg i.v., 40 min): 0%
- Changes(%) of basal values, coronary sinus oxygen tension ([2]; 2.0 mg/kg i.v., imm.): +12.1%
- Changes(%) of basal values, coronary sinus oxygen tension ([2]; 6.0 mg/kg i.v., 1 min): +29.2%
- Changes(%) of basal values, coronary sinus oxygen tension ([2]; 6.0 mg/kg i.v., 5 min): +22.3%
- Changes(%) of basal values, coronary sinus oxygen tension ([2]; 6.0 mg/kg i.v., 10 min): +19.8%
- Changes(%) of basal values, coronary sinus oxygen tension ([2]; 6.0 mg/kg i.v., 20 min): +15.0%
- Changes(%) of basal values, coronary sinus oxygen tension ([2]; 6.0 mg/kg i.v., 30 min): +14.3%
- Changes(%) of basal values, coronary sinus oxygen tension ([2]; 6.0 mg/kg i.v., 40 min): +12.0%
- Changes(%) of basal values, coronary sinus oxygen tension ([2]; 6.0 mg/kg i.v., imm.): +36.9%
- Changes(%) of basal values, coronary sinus oxygen tension ([2]; 20.0 mg/kg i.v., 1 min): +96.2%
- Changes(%) of basal values, coronary sinus oxygen tension ([2]; 20.0 mg/kg i.v., 5 min): +86.7%
- Changes(%) of basal values, coronary sinus oxygen tension ([2]; 20.0 mg/kg i.v., 10 min): +70.4%
- Changes(%) of basal values, coronary sinus oxygen tension ([2]; 20.0 mg/kg i.v., 20 min): +63.7%
- Changes(%) of basal values, coronary sinus oxygen tension ([2]; 20.0 mg/kg i.v., 30 min): +60.9%
- Changes(%) of basal values, coronary sinus oxygen tension ([2]; 20.0 mg/kg i.v., 40 min): +51.5%
- Changes(%) of basal values, coronary sinus oxygen tension ([2]; 20.0 mg/kg i.v., imm.): +79.1%
- Effects on coronary sinus oxygen tension (in words) ([2]; i.v., anesthetized dogs): a significant increase in coronary sinus oxygen tension, effect of which was of long duration
- Changes(%) of basal values, coronary sinus out flow ([3]; 2.0 mg/kg i.v., 1 min): +4.7%
- Changes(%) of basal values, coronary sinus out flow ([3]; 2.0 mg/kg i.v., 5 min): +4.9%
- Changes(%) of basal values, coronary sinus out flow ([3]; 2.0 mg/kg i.v., 10 min): +3.2%
- Changes(%) of basal values, coronary sinus out flow ([3]; 2.0 mg/kg i.v., 20 min): +2.1%
- Changes(%) of basal values, coronary sinus out flow ([3]; 2.0 mg/kg i.v., 30 min): +1.6%
- Changes(%) of basal values, coronary sinus out flow ([3]; 2.0 mg/kg i.v., 40 min): +1.1%
- Changes(%) of basal values, coronary sinus out flow ([3]; 2.0 mg/kg i.v., imm.): +17.8%
- Changes(%) of basal values, coronary sinus out flow ([3]; 6.0 mg/kg i.v., 1 min): +50.7%
- Changes(%) of basal values, coronary sinus out flow ([3]; 6.0 mg/kg i.v., 5 min): +28.6%
- Changes(%) of basal values, coronary sinus out flow ([3]; 6.0 mg/kg i.v., 10 min): +19.4%
- Changes(%) of basal values, coronary sinus out flow ([3]; 6.0 mg/kg i.v., 20 min): +18.2%
